# Results taken from patent publication US12077503B2, “Substituted cyclic amides and their use as herbicides” (FMC CORPORATION, priority 2015, dated 2024).
# Assays:
# [1] = test system: Galium (catchweed bedstraw, Galium aparine); assay: Test C preemergence; assay type: in vivo; conditions: for Plant response rating, Galium: scale 0 to 100, 0 no effect, 100 complete control
# Outline: (§1)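 Greenhouse test: seeds in a loam and sand blend treated preemergence, or seedlings at the 1- to 4-leaf stage (2 to 18 cm) in a peat, vermiculite and limestone mix treated postemergence, with test chemicals in a surfactant-containing non-phytotoxic solvent. Scored by eye at 13 to 15 d relative to controls, 0 (no effect) to 100 (complete control).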
# [2] = test system: barnyardgrass (Echinochloa crus-galli); assay: Test C preemergence; assay type: in vivo; conditions: for Plant response rating, Barnyardgrass: scale 0 to 100, 0 no effect, 100 complete control
# Outline: as §1
# [3] = test system: blackgrass (Alopecurus myosuroides); assay: Test C preemergence; assay type: in vivo; conditions: for Plant response rating, Blackgrass: scale 0 to 100, 0 no effect, 100 complete control
# Outline: as §1
# corn (Zea mays) = assay: Test C preemergence; assay type: in vivo; conditions: for Plant response rating, Corn: scale 0 to 100, 0 no effect, 100 complete control
# Outline: as §1
# [4] = test system: crabgrass, large (large crabgrass, Digitaria sanguinalis); assay: Test C preemergence; assay type: in vivo; conditions: for Plant response rating, Crabgrass, Large: scale 0 to 100, 0 no effect, 100 complete control
# Outline: as §1
# [5] = test system: foxtail, giant (giant foxtail, Setaria faberii); assay: Test C preemergence; assay type: in vivo; conditions: for Plant response rating, Foxtail, Giant: scale 0 to 100, 0 no effect, 100 complete control
# Outline: as §1
# [6] = test system: johnsongrass (Sorghum halepense); assay: Test C preemergence; assay type: in vivo; conditions: for Plant response rating, Johnsongrass: scale 0 to 100, 0 no effect, 100 complete control
# Outline: as §1
# [7] = test system: morningglory (Ipomoea coccinea); assay: Test C preemergence; assay type: in vivo; conditions: for Plant response rating, Morningglory: scale 0 to 100, 0 no effect, 100 complete control
# Outline: as §1
# [8] = test system: nutsedge, yellow (yellow nutsedge, Cyperus esculentus); assay: Test C preemergence; assay type: in vivo; conditions: for Plant response rating, Nutsedge, Yellow: scale 0 to 100, 0 no effect, 100 complete control
# Outline: as §1
# [9] = test system: oilseed rape (Brassica napus); assay: Test C preemergence; assay type: in vivo; conditions: for Plant response rating, Oilseed Rape: scale 0 to 100, 0 no effect, 100 complete control
# Outline: as §1
# [10] = test system: pigweed (Amaranthus retroflexus); assay: Test C preemergence; assay type: in vivo; conditions: for Plant response rating, Pigweed: scale 0 to 100, 0 no effect, 100 complete control
# Outline: as §1
# [11] = test system: ragweed (common ragweed, Ambrosia elatior); assay: Test C preemergence; assay type: in vivo; conditions: for Plant response rating, Ragweed: scale 0 to 100, 0 no effect, 100 complete control
# Outline: as §1
# [12] = test system: ryegrass, Italian (Italian ryegrass, Lolium multiflorum); assay: Test C preemergence; assay type: in vivo; conditions: for Plant response rating, Ryegrass, Italian: scale 0 to 100, 0 no effect, 100 complete control
# Outline: as §1
# soybean (Glycine max) = assay: Test C preemergence; assay type: in vivo; conditions: for Plant response rating, Soybean: scale 0 to 100, 0 no effect, 100 complete control
# Outline: as §1
# [13] = test system: velvetleaf (Abutilon theophrasti); assay: Test C preemergence; assay type: in vivo; conditions: for Plant response rating, Velvetleaf: scale 0 to 100, 0 no effect, 100 complete control
# Outline: as §1
# [14] = test system: waterhemp (common waterhemp, Amaranthus rudis); assay: Test C preemergence; assay type: in vivo; conditions: for Plant response rating, Waterhemp: scale 0 to 100, 0 no effect, 100 complete control
# Outline: as §1
# [15] = test system: wheat (winter wheat, Triticum aestivum); assay: Test C preemergence; assay type: in vivo; conditions: for Plant response rating, Wheat: scale 0 to 100, 0 no effect, 100 complete control
# Outline: as §1
# [16] = test system: barnyardgrass (Echinochloa crus-galli); assay: Test C flooded paddy test; assay type: in vivo; conditions: Flood, 0 is no effect, 100 is complete control
# Outline: (§2)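 Compound was added directly to paddy water held 3 cm above the soil, with plants at the 2-leaf stage. Injury was scored visually versus untreated controls after 13–15 d greenhouse growth, using a 0–100 scale where 100 means complete control.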
# rice (Oryza sativa) = assay: Test C flooded paddy test; assay type: in vivo; conditions: Flood, 0 is no effect, 100 is complete control
# Outline: as §2
# [17] = 31 g ai/ha, 0 is no effect, 100 is complete control
compound,measurement,setting,value
C=C(C)c1ccc([C@H]2CN(C)C(=O)[C@@H]2C(=O)Nc2cccc(F)c2C)cc1 [Compound 1150],melting point,,137 to 141 °C
CN1CC(c2ccc(F)c(C(F)(F)F)c2)C(C(=O)Nc2cccc(F)c2F)C1=O (centres unmarked) [Compound 613],"Plant response rating (scale of 0 to 100), Galium",[1]; [17],90
same,"Plant response rating, Galium",[1]; 62 g ai/ha,90
same,"Plant response rating, Galium",[1]; 125 g ai/ha,90
same,"Plant response rating, Galium",[1]; 250 g ai/ha,90
same,"Plant response rating (scale of 0 to 100), Barnyardgrass",[2]; [17],90
same,"Plant response rating, Barnyardgrass",[2]; 62 g ai/ha,95
same,"Plant response rating, Barnyardgrass",[2]; 125 g ai/ha,95
same,"Plant response rating, Barnyardgrass",[2]; 250 g ai/ha,98
same,"Plant response rating (scale of 0 to 100), Blackgrass",[3]; [17],85
same,"Plant response rating, Blackgrass",[3]; 62 g ai/ha,85
same,"Plant response rating, Blackgrass",[3]; 125 g ai/ha,95
same,"Plant response rating, Blackgrass",[3]; 250 g ai/ha,95
same,"Plant response rating (scale of 0 to 100), Corn",corn (Zea mays); [17],40
same,"Plant response rating, Corn",corn (Zea mays); 62 g ai/ha,55
same,"Plant response rating, Corn",corn (Zea mays); 125 g ai/ha,65
same,"Plant response rating, Corn",corn (Zea mays); 250 g ai/ha,85
same,"Plant response rating (scale of 0 to 100), Crabgrass, Large",[4]; [17],95
same,"Plant response rating, Crabgrass, Large",[4]; 62 g ai/ha,95
same,"Plant response rating, Crabgrass, Large",[4]; 125 g ai/ha,95
same,"Plant response rating, Crabgrass, Large",[4]; 250 g ai/ha,98
same,"Plant response rating (scale of 0 to 100), Foxtail, Giant",[5]; [17],95
same,"Plant response rating, Foxtail, Giant",[5]; 62 g ai/ha,95
same,"Plant response rating, Foxtail, Giant",[5]; 125 g ai/ha,95
same,"Plant response rating, Foxtail, Giant",[5]; 250 g ai/ha,98
same,"Plant response rating (scale of 0 to 100), Johnsongrass",[6]; [17],75
same,"Plant response rating, Johnsongrass",[6]; 62 g ai/ha,85
same,"Plant response rating, Johnsongrass",[6]; 125 g ai/ha,90
same,"Plant response rating, Johnsongrass",[6]; 250 g ai/ha,90
same,"Plant response rating (scale of 0 to 100), Morningglory",[7]; [17],40
same,"Plant response rating, Morningglory",[7]; 62 g ai/ha,40
same,"Plant response rating, Morningglory",[7]; 125 g ai/ha,55
same,"Plant response rating, Morningglory",[7]; 250 g ai/ha,50
same,"Plant response rating (scale of 0 to 100), Nutsedge, Yellow",[8]; [17],0
same,"Plant response rating, Nutsedge, Yellow",[8]; 62 g ai/ha,0
same,"Plant response rating, Nutsedge, Yellow",[8]; 125 g ai/ha,10
same,"Plant response rating, Nutsedge, Yellow",[8]; 250 g ai/ha,20
same,"Plant response rating (scale of 0 to 100), Oilseed Rape",[9]; [17],15
same,"Plant response rating, Oilseed Rape",[9]; 62 g ai/ha,70
same,"Plant response rating, Oilseed Rape",[9]; 125 g ai/ha,90
same,"Plant response rating, Oilseed Rape",[9]; 250 g ai/ha,90
same,"Plant response rating (scale of 0 to 100), Pigweed",[10]; [17],70
same,"Plant response rating, Pigweed",[10]; 62 g ai/ha,80
same,"Plant response rating, Pigweed",[10]; 125 g ai/ha,85
same,"Plant response rating, Pigweed",[10]; 250 g ai/ha,90
same,"Plant response rating (scale of 0 to 100), Ragweed",[11]; [17],25
same,"Plant response rating, Ragweed",[11]; 62 g ai/ha,25
same,"Plant response rating, Ragweed",[11]; 125 g ai/ha,40
same,"Plant response rating, Ragweed",[11]; 250 g ai/ha,65
same,"Plant response rating (scale of 0 to 100), Ryegrass, Italian",[12]; [17],10
same,"Plant response rating, Ryegrass, Italian",[12]; 62 g ai/ha,25
same,"Plant response rating, Ryegrass, Italian",[12]; 125 g ai/ha,75
same,"Plant response rating, Ryegrass, Italian",[12]; 250 g ai/ha,95
same,"Plant response rating (scale of 0 to 100), Soybean",soybean (Glycine max); [17],0
same,"Plant response rating, Soybean",soybean (Glycine max); 62 g ai/ha,0
same,"Plant response rating, Soybean",soybean (Glycine max); 125 g ai/ha,0
same,"Plant response rating, Soybean",soybean (Glycine max); 250 g ai/ha,0
same,"Plant response rating (scale of 0 to 100), Velvetleaf",[13]; [17],30
same,"Plant response rating, Velvetleaf",[13]; 62 g ai/ha,40
same,"Plant response rating, Velvetleaf",[13]; 125 g ai/ha,40
same,"Plant response rating, Velvetleaf",[13]; 250 g ai/ha,70
same,"Plant response rating (scale of 0 to 100), Waterhemp",[14]; [17],70
same,"Plant response rating, Waterhemp",[14]; 62 g ai/ha,75
same,"Plant response rating, Waterhemp",[14]; 125 g ai/ha,85
same,"Plant response rating, Waterhemp",[14]; 250 g ai/ha,90
same,"Plant response rating (scale of 0 to 100), Wheat",[15]; [17],25
same,"Plant response rating, Wheat",[15]; 62 g ai/ha,45
same,"Plant response rating, Wheat",[15]; 125 g ai/ha,65
same,"Plant response rating, Wheat",[15]; 250 g ai/ha,70
same,"Plant response rating (scale of 0 to 100), Barnyardgrass",[16]; 31 g ai/ha,0
same,"Plant response rating (scale of 0 to 100), Barnyardgrass",[16]; 62 g ai/ha,30
same,"Plant response rating (scale of 0 to 100), Barnyardgrass",[16]; 125 g ai/ha,50
same,"Plant response rating (scale of 0 to 100), Barnyardgrass",[16]; 250 g ai/ha,60
same,"Plant response rating (scale of 0 to 100), Rice",rice (Oryza sativa); 31 g ai/ha,0
same,"Plant response rating (scale of 0 to 100), Rice",rice (Oryza sativa); 62 g ai/ha,0
same,"Plant response rating (scale of 0 to 100), Rice",rice (Oryza sativa); 125 g ai/ha,10
same,"Plant response rating (scale of 0 to 100), Rice",rice (Oryza sativa); 250 g ai/ha,20
